Where “and” joins values, the source holds several entries; their conditions need not be identical. Equal values may be shown once.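 All cell lines were grown in 96-well plates and treated with compound for 48 hours. GI50 is the concentration that inhibits growth by half. TGI is the concentration that stops growth completely.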 *1 amine or outer side, *2 acyl side, *3 side chain or, on linkers, in order; H or OH if unused. Where a SMILES comes first, the peptide text is derived from it. Bridges are numbered along the chain shown (N, C = ends). [ ]: non-standard residue; d: D form. The star is where a group is joined. X38 = CC[C@H](C)[C@@H](N[*:1])[C@@H](O)CC(=O)[*:2]; NMeY = CN[C@@H](Cc1ccc(O)cc1)C(=O)O; dNMeL = CN[C@H](CC(C)C)C(=O)O; Hiv = CC(C)[C@H](O)C(=O)O; Pyruvoyl = CC(=O)C(=O)*
Assays:
Assay in all cases: DTP human tumour cell line panel, 48 h
ACHN renal = test system: ACHN renal
OVCAR-4 ovarian = test system: OVCAR-4 ovarian
786-0 renal = test system: 786-0 renal
NCI-H226 lung = test system: NCI-H226 lung
UACC-257 melanoma = test system: UACC-257 melanoma
SF-268 CNS = test system: SF-268 CNS
HOP-62 NSCLC = test system: HOP-62 NSCLC
MDA-N = test system: MDA-N
SF-295 CNS = test system: SF-295 CNS
SK-MEL-28 melanoma = test system: SK-MEL-28 melanoma

Row | SMILES | TGI (ACHN renal) [µM] | TGI (OVCAR-4 ovarian) [µM] | TGI (786-0 renal) [µM] | TGI (NCI-H226 lung) | TGI (UACC-257 melanoma) | TGI (SF-268 CNS) [µM] | TGI (HOP-62 NSCLC) [µM] | TGI (MDA-N) [µM] | TGI (SF-295 CNS) [µM] | TGI (SK-MEL-28 melanoma) [µM] | GI50 (ACHN renal) [µM] | GI50 (OVCAR-4 ovarian) [µM] | GI50 (NCI-H226 lung) [µM] | GI50 (UACC-257 melanoma) [µM] | GI50 (SF-268 CNS) [µM] | GI50 (MDA-N) [µM] | GI50 (SF-295 CNS) [µM] | GI50 (SK-MEL-28 melanoma) [µM]
1 | CCOC(=O)c1cc(Sc2ccc(N)c(C(=O)OCC)c2)ccc1N | > 100 | > 100 | > 100 | 44.7 µM | > 100 µM | > 100 | 65.9 | > 100 | > 100 | > 100 |  |  |  |  |  |  |  | 
2 | NC1CC(=O)c2cc(Cl)sc21 (configuration not stated) | > 100 | > 100 | > 100 | > 100 µM | > 100 µM | > 100 | > 100 | > 100 | > 100 | > 100 |  |  |  |  |  |  |  | 
3 | O=C(O)c1c[nH]c2c(Sc3ccccc3)nccc2c1=O | > 100 | > 100 | > 100 | > 100 µM | > 100 µM | > 100 | > 100 | > 100 | > 100 | > 100 |  |  |  |  |  |  |  | 
4 | COc1cc2cc(C(=O)N3CC(CCl)c4c3cc(NC(=O)C(C)(C)c3ccccc3[N+](=O)[O-])c3ccccc43)[nH]c2c(OC)c1OC (configuration not stated) |  |  | > 600 | 50 µM and 281 µM | 14.1 µM and 75.6 µM |  | 0.862 |  |  |  | 2.63 | 62.1 | 118 | 18.9 | 19.5 | 76.7 | 19.2 | 86.7
5 | C/C(=N\N)C(CN(C)C)C(c1ccccc1)c1c(O)c2ccccc2oc1=O (configuration not stated) | > 100 | > 100 | > 100 | > 100 µM | > 100 µM | > 100 | > 100 | > 100 | > 100 | > 100 |  |  |  |  |  |  |  | 
6 | Cc1c2ccncc2cc2c1sc1ccncc12 | 4.22 | 25.2 | 18 | 5.18 µM | 11 µM | 14.4 | 8.37 | 14.3 | 9.59 | 14.1 |  |  |  |  |  |  |  | 
7 | Cc1c2cnccc2c(C)c2c1[nH]c1ccc(O)cc12 | 8.29 | 8 | 1.42 | > 10 µM | > 10 µM | > 10 | 2.75 | > 10 | 5.57 | 9.94 |  |  |  |  |  |  |  | 
8 | COc1ccccc1C1CC(=O)CC(c2ccccc2OC)C12C(=O)NC(=S)NC2=O (configuration not stated) | > 100 | > 100 | > 100 | > 100 µM | > 100 µM | > 100 | > 100 | 52.5 | > 100 | 95.6 |  |  |  |  |  |  |  | 
9 | CSc1nc2ccccc2c(=O)n1/N=C1\C(=O)N(CN2CCCCC2)c2ccc(Cl)cc21 | > 100 | > 100 | 69 | > 100 µM | 54.2 µM | > 100 | > 100 | > 100 | > 100 | > 100 |  |  |  |  |  |  |  | 
10 | COc1ccc(Br)c2c1CC(C(=O)O)CC2 (configuration not stated) | > 100 | > 100 | > 100 | > 100 µM | > 100 µM | > 100 | > 100 | > 100 | > 100 | > 100 |  |  |  |  |  |  |  | 
11 | CCOC(=O)CCC(NC(=O)Cc1ccc(Nc2nc3ccccc3nc2-c2ccccc2)cc1)C(=O)OCC (configuration not stated) | > 100 | > 100 | > 100 | > 100 µM | > 100 µM | 23.7 | > 100 | > 100 | 48.4 | > 100 |  |  |  |  |  |  |  | 
12 | COC(=O)[C@H](Cc1ccccc1)NC(=O)NCCN(CCNC(=O)N[C@@H](Cc1ccccc1)C(=O)OC)C(=O)N[C@@H](Cc1ccccc1)C(=O)OC | 51.6 | 30 | 34.1 | 34.6 µM | 40.4 µM | 31.5 | 39.8 | 32.9 | 35.3 | 35.4 |  |  |  |  |  |  |  | 
13 | CC1C2CC(CC(=O)N2)C1(C)C (configuration not stated) | > 100 | > 100 | > 100 | > 100 µM | > 100 µM | > 100 | > 100 | > 100 | > 100 | > 100 |  |  |  |  |  |  |  | 
14 | O=c1c2cc(S(=O)(=O)Nc3ccccc3Cl)ccc2ncn1NS(=O)(=O)c1ccc(Br)cc1 | > 37.5 | > 37.5 | > 37.5 | > 37.5 µM | > 37.5 µM | > 37.5 | > 37.5 | > 37.5 | > 37.5 | > 37.5 |  |  |  |  |  |  |  | 
15 | C[C@@]12C=CC3C/C(=N\C(N)=S)C=C(CCCC4OCCO4)[C@]3(CC1)C2 (some centres not stated) | 92.2 | 99.2 | 57.1 | 55 µM | 40.7 µM | 87.8 | 92.3 | 33.9 | 88 | 35 |  |  |  |  |  |  |  | 
16 | Clc1cccc(Cl)c1C=NC12CC3CC(CC(C3)C1)C2 | > 10 | > 10 | > 10 | > 10 µM | > 10 µM | > 10 | > 10 | > 10 | > 10 | > 10 |  |  |  |  |  |  |  | 
17 | O=C1NC(N2CCOCC2)=N/C1=C\c1cccs1 | > 100 | > 100 | > 100 | > 100 µM | > 100 µM | > 100 | > 100 | > 100 | > 100 | > 100 |  |  |  |  |  |  |  | 
18 | O=S1(=O)c2cnccc2NC(=NCc2cccc3ccccc23)N1c1ccccc1 | > 100 | > 100 | 74.7 | > 100 µM | > 100 µM | > 100 | > 100 | 26.9 | > 100 | > 100 |  |  |  |  |  |  |  | 
19 | CC(C)=CCOc1cc(NC(=S)c2ccoc2C)ccc1Cl | > 100 | > 100 | > 100 | > 100 µM | > 100 µM | > 100 | > 100 | > 100 | > 100 | > 100 |  |  |  |  |  |  |  | 
20 | COc1cc2c(cc1OC)-c1[nH]c3ccc(C#N)cc3c1CC(=O)N2 | > 100 | > 100 | > 100 | > 100 µM | > 100 µM | > 100 | > 100 | > 90.6 | > 100 | > 100 |  |  |  |  |  |  |  | 
21 | O=C1c2cc3c(cc2CC12Cc1cc4c(cc1C2=O)CCCC4)CCCC3 | > 100 | 46.7 | 52.4 | > 100 µM | 82.1 µM | > 100 | 57.1 | > 100 | 69 | > 100 |  |  |  |  |  |  |  | 
22 | CCOC(=O)NC(C(F)(F)F)(C(F)(F)F)P(=O)(OC(C)C)OC(C)C | > 100 | > 100 | > 100 | > 100 µM | > 100 µM | > 100 | > 100 | > 100 | > 100 | > 100 |  |  |  |  |  |  |  | 
23 | COc1cc(S(=O)(=O)Nc2ccc(-c3csc(N4C(=O)CSC4c4cccs4)n3)cc2)ccc1Cl (configuration not stated) | > 100 | 82.9 | > 100 | 81.8 µM | 46 µM | 40.5 | > 100 | 98.2 | > 100 | 39.5 |  |  |  |  |  |  |  | 
24 | c1csc(-c2cscc2-c2ccsc2)c1 | > 100 | > 100 | > 100 | > 78.9 µM | > 100 µM | > 100 | > 100 | > 63.3 | > 100 | > 100 |  |  |  |  |  |  |  | 
25 | CCOC(=O)c1ccc(C(=O)OCC)n1-c1cc2cc(c1)CSCc1cc(cc(-n3c(C(=O)OCC)ccc3C(=O)OCC)c1)CSC2 | > 10 | > 10 | > 10 | > 10 µM | > 10 µM | > 10 | > 10 | > 10 | > 10 | > 10 |  |  |  |  |  |  |  | 
26 | C=C1C(=O)C([Si](C)(C)C)=C2C=C(C)C3(CC3)C12C (configuration not stated) | > 100 | > 100 | > 100 | > 100 µM | > 100 µM | > 100 | > 100 | > 100 | > 100 | > 100 |  |  |  |  |  |  |  | 
27 | CC[C@H](C)[C@H]1NC(=O)[C@@H](NC(=O)[C@@H](CC(C)C)N(C)C(=O)[C@@H]2CCCN2C(=O)C(C)=O)[C@@H](C)OC(=O)[C@H](Cc2ccc(OC)cc2)N(C)C(=O)[C@@H]2CCCN2C(=O)[C@H](CC(C)C)NC(=O)[C@H](C(C)C)OC(=O)C[C@@H]1O (Pyruvoyl-P[dNMeL]T[X38][Hiv]LP[NMeY](Me); ester 3-C) | 0.438 | 0.351 | 0.0397 | 0.0331 µM | 0.0655 µM | 0.0983 | 0.0728 | 0.14 | 0.525 | 0.543 |  |  |  |  |  |  |  | 
28 | Cc1nc2sc(CCl)nn2c(=O)c1Cl | 29.3 | 29.7 | 22.4 | 31.8 µM | 29.7 µM | 33.4 | 32.1 | 24.8 | 31.1 | 27.3 |  |  |  |  |  |  |  | 
29 | NC(=O)C(Nc1c(Cl)cccc1Cl)c1cc2cc(Br)ccc2nc1Cl (configuration not stated) | > 100 | > 100 | > 100 | > 100 µM | > 100 µM | > 100 | > 100 | > 100 | > 100 | > 100 |  |  |  |  |  |  |  | 
30 | Fc1cc(C2=C[C@H](c3ccc(Cl)cc3)NC(=S)N2)c(Cl)cc1Cl | > 100 | > 100 | > 100 | > 100 µM | > 100 µM | > 100 | > 100 | > 100 | > 100 | > 100 |  |  |  |  |  |  |  | 
